US10300056B2, “CGRP receptor antagonists” (Heptares Therapeutics Limited, priority 2015, dated 2019)
Converted amounts (≈) assume the structure as drawn. Where two headings read alike, the source gives them in different places.

What was measured:
[1] = target: Human CGRP receptors (consisting of CRLR and RAMP1) (Homo sapiens (Human), UniProt O60894+Q16602); experiment: Radioligand binding assay (3H-telcagepant displacement); details: Sf21 membranes, 0.5 nM 3H-telcagepant, Cheng-Prussoff
Protocol: Human Calcitonin Receptor Like Receptor (CRLR) and human RAMP1 were cloned into Invitrogen's (ThermoFisher Scientific, UK) pFastBac dual expression vector. Transposition of CRLR/RAMP1 DNA was performed using Invitrogen's Bac-to-Bac Baculovirus Expression Systems. P0 baculovirus was generated by transfecting SF9 cells with bacmid DNA using Cellfectin® II transfection reagent (ThermoFisher Scientific, UK, catalog number 10362-100). Following P0 generation P1 virus was then generated ready for large scale infection and membrane preparation. Sf21 cells were grown in expression medium ESF921 (Expression Systems, USA, catalog number 96-001-01) supplemented with 10% heat-inactivated FBS and 1% Pen/Strep and were infected at a cell density of 2.5×10^6 cells/mL and an MOI of 2. Expression was carried out over 48 h in a shaking incubator set at 27° C. The cell culture was centrifuged at 2,500 rcf for 10 min at 4° C. The pellets were resuspended in cold PBS supplemented with Roche's Complete EDTA-free protease inhibitor cocktail tablets (Roche Applied Sciences, catalog number 05056489001), 1 mM PMSF and 1 mM EDTA. The resuspended cell paste was then centrifuged at 3,273 rcf for 12 min at 4° C. The supernatant was discarded and the pellet frozen at −80° C. The cell pellet from a 4 L culture was resuspended in buffer containing 50 mM Hepes pH 7.5, 150 mM NaCl, 8 Roche EDTA-free protease inhibitor cocktail tablets and 1 mM PMSF. The suspension was left stirring at rt for 1 h and then homogenised for 90 s at 9,500 rpm using a VDI 25 (VWR, USA) homogeniser. The cells were then lysed using a Microfluidizer processor M-110L Pneumatic (Microfluidics, USA). After lysis, the mixture was homogenised for 90 s at 9,500 rpm and then centrifuged at 335 rcf for 10 min. The supernatant was then further ultra-centrifuged at 42,000 rpm for 90 min. After ultra-centrifugation, the supernatant was discarded and the pellet was resuspended in 50 mL (25 mL for each 2 L culture) of buffer containing 50 mM Hepes pH 7.5, 150 mM NaCl, 3 Roche EDTA-free protease inhibitor cocktail tablets and 1 mM PMSF. The suspension was then homogenised for 90 s at 9,500 rpm. The resulting membranes were then stored at −80° C.
Human CGRP receptors expressed (consisting of CRLR and RAMP1) in insect Sf21 cell membrane homogenates were re-suspended in the binding buffer (10 mM HEPES, pH 7.4, 5 mM MgCl2, 0.2% BSA) to a final assay concentration of 0.6 μg protein per well. Saturation isotherms were determined by the addition of various concentrations of ^3H-telcagepant (Ho et al, The Lancet, 2008, 372, 2115) (in a total reaction volume of 250 μL) for 60 min at rt. At the end of the incubation, membranes were filtered onto a unifilter, a 96-well white microplate with bonded GF/B filter pre-incubated with 0.5% PEI, with a Tomtec cell harvester and washed 5 times with distilled water. Non-specific binding (NSB) was measured in the presence of 10 nM MK-3207 hydrochloride (CAS No. 957116-20-0). Radioactivity on the filter was counted (1 min) on a microbeta counter after addition of 50 μL of scintillation fluid. For inhibition experiments, membranes were incubated with 0.5 nM ^3H-telcagepant and 10 concentrations of the inhibitory compound (0.001-10 μM). IC50 values were derived from the inhibition curve and the affinity constant (Ki) values were calculated using the Cheng-Prussoff equation (Cheng et al, Biochem. Pharmacol. 1973, 22, 3099-3108).

[2] = Thermodynamic solubility profiling; type: physicochemical; details: aqueous buffer, thermodynamic from solid
Protocol: A 50 mM DMSO stock solution of test compound was prepared, and from this, a working solution of 1 mM was prepared by dilution with DMSO. The UV absorbance of working solution was scanned from 220 nm to 1000 nm to identify the wavelength maxima of test compound. The 1 mM working solution was then serially diluted in DMSO to different concentrations to determine linearity/calibration curve. […] The resulting solution was then kept on a RotoSpin shaker at 50 rpm for 24 h at rt before the solution was filtered using 0.45 micron PVDF injector filters in order to remove the insoluble fraction of the compound. Subsequently, 150 uL of the filtrate is taken for quantification using a UV spectrophotometer, acquiring the optical density of standard solutions and test compound at the same wavelength maxima. From the optical density of test compound the thermodynamic solubility is calculated using the linearity/calibration curve and expressed as micromolar (μM). Solubility profiles of certain compounds of the invention are detailed in Table 7.

[3] = target: T1, CGRP receptor ectodomain complex (Homo sapiens (Human), UniProt O60894+Q16602)
T1 sequence (Q16602 23-139): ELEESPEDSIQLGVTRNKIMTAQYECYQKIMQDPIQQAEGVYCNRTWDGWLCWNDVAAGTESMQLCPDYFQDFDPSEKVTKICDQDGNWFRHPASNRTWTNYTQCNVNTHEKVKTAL
T1 sequence (O60894 27-118): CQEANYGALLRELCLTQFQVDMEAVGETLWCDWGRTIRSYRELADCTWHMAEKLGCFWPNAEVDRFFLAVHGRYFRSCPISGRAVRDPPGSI
Protocol: (§1) Kinetic analyses were run on a Biacore T200 instrument (GE Healthcare Bio-Sciences AB, Uppsala, Sweden) at 25° C. using 0.05 mM EDTA, PBS (10 mM phosphate buffer, 2.7 mM KCl, 137 mM NaCl) pH 7.4, 0.005% v/v Surfactant P20, 5% DMSO as the running buffer. […] The chip was loaded with Ni^2+ and carboxyl groups of the dextran matrix were activated by EDC/NHS. The receptor ectodomain complex (100 nM in running buffer) was then injected and immobilised via the His-tag and amino groups. Two fold dilution series of each compound (five concentrations, in the range 25-40 nM) were injected. Blank-subtracted data were fitted to a 1:1 interaction model to obtain kinetic parameters which are expressed in Table 4 as dissociation half-life (t1/2=(ln 2/off-rate (kd)/60).

[4] = target: T1, CGRP receptor ectodomain complex; experiment: Receptor kinetic profiling by surface plasmon resonance (Biacore T200); details: SPR; for CGRP t1/2: dissociation half-life, 25° C.
Protocol: as §1

[5] = Cynomolgus monkey pharmacokinetic profiling (iv, sc); details: male, plasma, iv
Excerpt: Pharmacokinetic profiling.
(§2) WinNonlin v6.2 statistics software (Pharsight Corporation, California, USA) was used to generate pharmacokinetic parameters using the non-compartmental model.

[6] = Rat pharmacokinetic profiling (iv, sc, IN); details: male, Sprague Dawley, plasma
Protocol: Pharmacokinetic profiling.
Prior to IN dosing rats were anaesthetised with an intramuscular dose of 25-30 mg/kg ketamine cocktail (ketamine, xylazine hydrochloride and acepromazine maleate in saline) and the dose is introduced over 20-30 s via a polyethylene PE-10 tube inserted approximately 5 mm into the nasal cavity of the rat.
as §2

CGRP receptor [7] = target: T2, CGRP receptor (Homo sapiens (Human), UniProt O60894+Q16602); experiment: cAMP functional assay (HTRF) in SK-N-MC cells; type: cell-based; details: read-out: pkb average (converted)
T2 sequence (Q16602 23-461): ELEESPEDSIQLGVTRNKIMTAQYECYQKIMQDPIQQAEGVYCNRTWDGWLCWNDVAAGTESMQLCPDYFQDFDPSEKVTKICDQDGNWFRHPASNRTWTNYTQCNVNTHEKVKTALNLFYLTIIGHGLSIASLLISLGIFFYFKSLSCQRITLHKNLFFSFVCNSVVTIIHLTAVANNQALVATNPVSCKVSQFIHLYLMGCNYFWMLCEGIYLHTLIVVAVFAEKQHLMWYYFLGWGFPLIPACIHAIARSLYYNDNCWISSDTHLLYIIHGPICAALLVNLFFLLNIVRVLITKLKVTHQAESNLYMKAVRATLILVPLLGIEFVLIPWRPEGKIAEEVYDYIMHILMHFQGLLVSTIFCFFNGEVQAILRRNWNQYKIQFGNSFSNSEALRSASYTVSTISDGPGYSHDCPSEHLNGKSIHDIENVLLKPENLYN
T2 sequence (O60894 27-148): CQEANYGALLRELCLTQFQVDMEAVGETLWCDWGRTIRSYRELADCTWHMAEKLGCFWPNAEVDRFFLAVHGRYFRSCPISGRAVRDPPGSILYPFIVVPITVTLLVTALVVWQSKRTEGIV
Protocol: cAMP production following receptor activation was determined using the Homogeneous Time-Resolved Fluorescence (HTRF) cAMP dynamic-2 assay (Cisbio, France). The human neuroblastoma cell line SK-N-MC endogenously expressing the human CGRP receptor was seeded at a density of 12,500 cells/well in solid walled 96 well half area plates (Costar, Catalog Number 3688, Corning Life Sciences, Germany). After 16 h incubation at 37° C. media was removed and cells were incubated at 37° C. for 30 min in serum free media containing 500 μM IBMX (Tocris, Abingdon, UK, Catalog Number 2845) and increasing concentrations of test antagonist. Following this cells were challenged with an EC80 concentration of human CGRP (0.3 nM) for a further 30 min at 37° C. and then cAMP production was determined as manufacturer's instructions before plates were read on a PheraStar fluorescence plate reader (BMG LabTech, Germany). IC50 values were derived from the inhibition curve. The pIC50 values (where pIC50=−log10 IC50) were converted to a functional pKb value using a modified Cheng-Prussoff equation where Kd=agonist EC50 and L hot=agonist challenge concentration. The pKb values of certain compounds of the invention are detailed in Table 3.

CGRP receptor [8] = target: T2, CGRP receptor; details: in words, literature; cited from earlier work
[9] = at 24 h after intravenous infusion of a 2.5 mg dose; cited from earlier work

Human CGRP receptors (consisting of CRLR and RAMP1), sequence (Q16602 23-461): as the sequence (Q16602 23-461) above
Human CGRP receptors (consisting of CRLR and RAMP1), sequence (O60894 27-148): as the sequence (O60894 27-148) above

SMILES	pKi average [1]	solubility thermodynamic at 24 h ([2]; PBS buffer pH 7.4, 24 h at rt, read-out: Thermodynamic solubility pH 7.4)	solubility thermodynamic at 24 h ([2]; Sodium Phosphate Buffer pH 6.0, 24 h at rt, read-out: Thermodynamic solubility pH 6)	CGRP t1/2 [3]	receptor dissociation (off-rate) compared with olcegepant or MK-3207 ([4]; in words)	clearance [5]	bioavailability ([6]; inhaled or intranasal)	clearance ([6]; iv)	bioavailability ([6]; sc, 1 mg/kg)	Kb (CGRP receptor [7])	kinetics at the CGRP receptor (CGRP receptor [8])	CGRP t1/2 [4]	headache-free rate [9]
O=C1Nc2ncccc2C2(CCN(C(=O)N[C@H](Cc3cc(Br)c(O)c(Br)c3)C(=O)N[C@@H](CC3CCNCC3)C(=O)N3CCN(c4ccncc4)CC3)CC2)O1 [Example 14, 3,5-dibromo-Nα-[(2′-oxo-1′,2′-dihydro-1H-spiro[piperidine-4,4′-pyrido[2,3-d][1,3]oxazin]-1-yl)carbonyl]-N-{(2S)-1-oxo-3-(piperidin-4-yl)-1-[4-(pyridin-4-yl)piperazin-1-yl]propan-2-yl}-D-tyrosinamide]	10.1	862 µM (≈ 762 µg/mL)	1110 µM (≈ 982 µg/mL)	38 min	slow receptor dissociation	3 mL/min/kg	19%	22 mL/min/kg	96%	0.0158 nM			
O=C(CN1C(=O)C2(CCCC2)NC[C@H]1c1cc(F)cc(F)c1)Nc1ccc2c(c1)C[C@@]1(C2)C(=O)Nc2ncccc21 [MK-3207, reference compound]											relatively slow dissociation	27 min	
NCCCC[C@H](NC(=O)[C@@H](Cc1cc(Br)c(O)c(Br)c1)NC(=O)N1CCC(N2Cc3ccccc3NC2=O)CC1)C(=O)N1CCN(c2ccncc2)CC1 [olcegepant]											slow kinetics	30 min	47%
